Values after ≈ are worked out from the molar mass of the structure shown. Values joined by “and” are separate entries in the source; they are usually repeats but may differ in a detail not shown here. Equal entries are not always repeated. Where two headings read alike, the source gives them in different places.
Assays:
Format in all cases: cell-based
[1] = test system: human malignant melanoma cell line (A375); assay: MTT cytotoxicity assay, A375; details: A-375, 48 h exposure, read-out: Cytotoxic activity IC50, A375
Experimental: (§1) The metabolites 1–4 were evaluated for their cytotoxic activities against human malignant melanoma cell line (A375), human ovarian cancer cell line (SKOV-3), human breast cancer cell line (MDA-MB231), human gastric cancer cell line (MGC-803) and human normal cell line (L-02) with the MTT method ([Wang et al., 2022]). The cell lines were maintained in Dulbecco’s modified eagle medium (DMEM) supplemented with 10% fetal bovine serum (FBS) along with 1% penicillin and streptomycin. Cells were grown at 37°C in an atmosphere with 5% CO2 and then seeded in 96-well plates and permitted to grow for 20 h. Then tested compounds at preset concentrations were added. The 3-(4,5-dimethylthiazol-2-yl)-2,5-diphenyltetrazolium bromide (MTT; 20 μl, 5 mg/ml) was added into each well after a 48 h exposure period. After an additional 4 h further incubation, the medium was replaced by DMSO (150 μl), then shaking the plates for 15 min. The absorbance at 490 nm were recorded. The percentage of cell viability was calculated using the following formula: Cell viability (%) = the OD of tested group/the OD of CK × 100%. Finally, IC50 values were determined by EXCEL. The azithromycin was used as positive control.

[2] = test system: human gastric cancer cell line (MGC-803); assay: MTT cytotoxicity assay, MGC-803; details: 48 h exposure, read-out: Cytotoxic activity IC50, MGC-803
Experimental: as §1

[3] = MTT cytotoxicity assay, L-02; details: human, L-02 normal liver cells, 48 h exposure, normal cell line, read-out: Cytotoxic activity IC50, L-02
Experimental: as §1

[4] = test system: human breast cancer cell line (MDA-MB231); assay: MTT cytotoxicity assay, MDA-231; details: MDA-MB-231, 48 h exposure, read-out: Cytotoxic activity IC50, MDA-231
Experimental: as §1

[5] = test system: human ovarian cancer cell line (SKOV-3); assay: MTT cytotoxicity assay, SKOV-3; details: SK-OV-3, 48 h exposure, read-out: Cytotoxic activity IC50, SKOV-3
Experimental: as §1

[6] = test system: Micrococcus tetragenus (ATCC35098); assay: Minimum inhibitory concentration assay, M. tetragenus; details: for MIC: Micrococcus, ATCC35098
Experimental: (§2) The Staphylococcus aureus (ATCC6538), methicillin-resistant S. aureus (MRSA, SA2), Escherichia coli (ATCC8739) and Micrococcus tetragenus (ATCC35098) donated by Professor Ting Xue from Anhui Agricultural university were used as a target pathogen for the examination of antibacterial activity of the metabolites. The disc diffusion ([Özogul et al., 2022]) and minimum inhibitory concentrations (MICs; [Cui et al., 2022]) methods were performed to evaluate the antibacterial activities of the new natural metabolites 1, 2, and 4. Filter paper disks (6 mm) with metabolite dissolved in DMSO in a concentration (30 μg/filter paper) were added to the culture medium, and the plates were incubated at 37°C for 12 h. Filter papers with DMSO and levofloxacin were set as negative and positive controls, respectively. All experiments were performed in triplicate, and data were shown as mean values standard deviation. And the MICs of the compounds were determined by the method as we previously described ([Cui et al., 2022]).

[7] = test system: Micrococcus tetragenus (ATCC35098); assay: Filter paper disc diffusion, M. tetragenus; details: 30 μg/filter paper (6 mm disc), 37°C, 12 h, dash = No inhibited
Experimental: as §2

[8] = test system: Escherichia coli (ATCC8739); assay: Minimum inhibitory concentration assay, E. coli
Experimental: as §2

[9] = test system: Staphylococcus aureus (ATCC6538); assay: Minimum inhibitory concentration assay, S. aureus; details: for MIC: Staphylococcus aureus, ATCC6538
Experimental: as §2

[10] = test system: Escherichia coli (ATCC8739); assay: Filter paper disc diffusion, E. coli; details: 30 μg/filter paper (6 mm disc), 37°C, 12 h; dash = No inhibited
Experimental: as §2

[11] = test system: human cancer cell lines (A375, SKOV-3, MDA-231 and MGC-803); assay: MTT cytotoxicity assay, tested human cancer cell lines together; details: range over A375, SKOV-3, MDA-231 and MGC-803, read-out: IC50 values against the tested human cancer cell lines
Experimental: as §1

[12] = test system: methicillin-resistant S. aureus (MRSA, SA2); assay: Filter paper disc diffusion, MRSA; details: 30 μg/filter paper (6 mm disc), 37°C, 12 h, dash = No inhibited
Experimental: as §2

[13] = test system: methicillin-resistant S. aureus (MRSA, SA2); assay: Minimum inhibitory concentration assay, MRSA
Experimental: as §2

[14] = test system: Staphylococcus aureus (ATCC6538); assay: Filter paper disc diffusion, S. aureus; details: 30 μg/filter paper (6 mm disc), 37°C, 12 h, dash = No inhibited
Experimental: as §2

[15] = Staphylococcus aureus, MRSA; read-out: Minimum inhibitory concentration (MIC), MRSA

| Compound | IC50 [1] [µM] | IC50 [2] [µM] | IC50 at 48 h [3] [µM] | IC50 [4] [µM] | IC50 [5] [µM] | MIC [6] [µg/mL] | Zone of inhibition (ZOI), Micrococcus tetragenus [7] | MIC [8] [µg/mL] | MIC [9] [µg/mL] | Zone of inhibition (ZOI), Escherichia coli [10] | Zone of inhibition (ZOI), MRSA [12] | MIC [13, 15] [µg/mL] | Zone of inhibition (ZOI), Staphylococcus aureus [14] | also measured |
| --- | --- | --- | --- | --- | --- | --- | --- | --- | --- | --- | --- | --- | --- | --- |
| CC[C@H]1OC(=O)[C@H](C)[C@@H](O[C@H]2C[C@@](C)(OC)[C@@H](O)[C@H](C)O2)[C@H](C)[C@@H](O[C@@H]2O[C@H](C)C[C@H](N(C)C)[C@H]2O)[C@](C)(O)C[C@@H](C)CN(C)[C@H](C)[C@@H](O)[C@]1(C)O [Azithromycin, azithromycin, reference compound] | 0.79 ± 0.13 | 1.57 ± 0.03 | 7.34 ± 1.15 | 4.03 ± 0.43 | 0.41 ± 0.12 |  |  |  |  |  |  |  |  |  |
| Nc1cc2nc3cc(CO)ccc3oc-2cc1=O [Compound 1, 2-amino-8-hydroxymethyl-3H-phenoxazin-3-one] | 67.7 ± 4.31 | 50.2 ± 7.01 | 72 ± 7.22 | 55.9 ± 7.47 | 22.3 ± 3.78 | 12.5 (≈ 51.6 µM) | 15.3 mm and 15. mm and 15.3 ± 0.2 mm | > 100 | 12.5 (≈ 51.6 µM) | –^b | 15.3 mm and 15.3 ± 0.1 mm | 25 (≈ 103 µM) | 17.2 mm and 17.2 ± 0.2 mm | Minimum inhibitory concentration (MIC), Staphylococcus aureus [9]: 12.5 µg/mL (≈ 51.6 µM); IC50 [11]: 22.3 to 67.7 µM |
| CC(=O)OCc1ccc2oc3cc(=O)c(N)cc-3nc2c1 [Compound 2, exfoliazone B] | > 100 | 69.9 ± 1.94 | > 100 | > 100 | 75.8 ± 5.77 | 50 (≈ 176 µM) | –^b | > 100 | > 100 | –^b | –^b | > 100 | –^b |  |
| CC(=O)Nc1cc(CNc2cc3nc4cc(CO)ccc4oc-3cc2=O)ccc1O [Compound 3, exfoliazone C] | > 100 | > 100 | > 100 | > 100 | > 100 |  |  |  |  |  |  |  |  |  |
| CC(=O)OCc1ccc2oc3cc(=O)c(NC4OC(CO)C(O)C(O)C4O)cc-3nc2c1 (centres unmarked) [Compound 4, exfoliazoneglycoside] | > 100 | > 100 | > 100 | > 100 | > 100 | > 100 | –^b | > 100 | > 100 | –^b | –^b | > 100 | –^b |  |
| C[C@H]1COc2c(N3CCN(C)CC3)c(F)cc3c(=O)c(C(=O)O)cn1c23 [Levofloxacin, levofloxacin, reference compound] |  |  |  |  |  | 3.13 (≈ 8.66 µM) | 24.8 ± 0.6 mm | 3.13 (≈ 8.66 µM) | 3.13 (≈ 8.66 µM) | 33.0 ± 1.0 mm | 15.2 ± 0.1 mm |  | 28.9 ± 0.8 mm | Zone of inhibition (ZOI), Micrococcus tetragenus ([7]; listed as levofloxacin): 24.8 mm; Zone of inhibition (ZOI), MRSA ([12]; listed as levofloxacin): 15.2 mm; MIC ([13]; Staphylococcus aureus, MRSA, read-out: Minimum inhibitory concentration (MIC), MRSA): 6.25 µg/mL (≈ 17.3 µM); Zone of inhibition (ZOI), Staphylococcus aureus ([14]; listed as levofloxacin): 28.9 mm |
| gentamycin sulfate [reference compound] |  |  |  |  |  |  |  |  |  |  |  |  |  | Minimum inhibitory concentration (MIC), Micrococcus tetragenus [6]: 3.13 µg/mL; Minimum inhibitory concentration (MIC), Staphylococcus aureus [9]: 3.13 µg/mL; Minimum inhibitory concentration (MIC), MRSA [13]: 6.25 µg/mL |

Reference: article PMC9884962, “Pigments of aminophenoxazinones and viridomycins produced by termite-associated Streptomyces tanashiensis BYF-112” (Frontiers in Microbiology, 2023)
